According to ChEMBL document CHEMBL1240450, “Design, synthesis and biological evaluation of novel quinazoline derivatives as potential antitumor agents: molecular docking study” (Eur J Med Chem, 2010):
Converted amounts (≈) assume the structure as drawn.

How the values were obtained:
MCF7 = experiment: Antitumor activity against human MCF7 cells after 48 hrs by Sulphorhodamine-B assay; details: MCF7, 48 h
HepG2 = experiment: Antitumor activity against human HepG2 cells after 48 hrs by Sulphorhodamine-B assay; details: HepG2, 48 h
HeLa = experiment: Antitumor activity against human HeLa cells after 48 hrs by Sulphorhodamine-B assay

Cc1ccc(C(=O)Nc2ccc(Cl)cc2C(N)=O)cc1
IC50 (MCF7): 5.39 µg/mL (≈ 18.7 µM)
IC50 (HepG2): 21 µg/mL (≈ 72.7 µM)
IC50 (HeLa): 8.23 µg/mL (≈ 28.5 µM)

Cc1ccc(C(=O)Nc2ccc(Cl)cc2C(=O)O)cc1
IC50 (MCF7): 14.7 µg/mL (≈ 50.7 µM)
IC50 (HepG2): 15.9 µg/mL (≈ 55.1 µM)
IC50 (HeLa): 18.9 µg/mL (≈ 65.2 µM)

Cc1ccc(-c2nc3ccc(Cl)cc3c(=O)o2)cc1
IC50 (MCF7): 10.5 µg/mL (≈ 38.6 µM)
IC50 (HepG2): 22.5 µg/mL (≈ 82.8 µM)
IC50 (HeLa): 8.23 µg/mL (≈ 30.3 µM)

Cc1ccc(-c2nc3ccc(Cl)cc3c(=O)[nH]2)cc1
IC50 (MCF7): 4.98 µg/mL (≈ 18.4 µM)
IC50 (HepG2): 9.86 µg/mL (≈ 36.4 µM)
IC50 (HeLa): 10.1 µg/mL (≈ 37.3 µM)

Cc1ccc(-c2nc3ccc(Cl)cc3c(=O)n2C)cc1
IC50 (MCF7): 3.35 µg/mL (≈ 11.8 µM)
IC50 (HepG2): 4.17 µg/mL (≈ 14.6 µM)
IC50 (HeLa): 4.37 µg/mL (≈ 15.3 µM)

Cc1ccc(-c2nc3ccc(Cl)cc3c(=S)[nH]2)cc1
IC50 (MCF7): 3.35 µg/mL (≈ 11.7 µM)
IC50 (HepG2): 7.01 µg/mL (≈ 24.4 µM)
IC50 (HeLa): 4.57 µg/mL (≈ 15.9 µM)

Cc1ccc(-c2nc(N)c3cc(Cl)ccc3n2)cc1
IC50 (MCF7): 3.76 µg/mL (≈ 13.9 µM)
IC50 (HepG2): 14.5 µg/mL (≈ 53.8 µM)
IC50 (HeLa): 3.56 µg/mL (≈ 13.2 µM)

Cc1ccc(-c2nc(NO)c3cc(Cl)ccc3n2)cc1
IC50 (MCF7): 6.81 µg/mL (≈ 23.8 µM)
IC50 (HepG2): 23.1 µg/mL (≈ 80.8 µM)
IC50 (HeLa): 12.7 µg/mL (≈ 44.4 µM)

Cc1ccc(-c2nc(NN)c3cc(Cl)ccc3n2)cc1
IC50 (MCF7): 3.76 µg/mL (≈ 13.2 µM)
IC50 (HepG2): 4.17 µg/mL (≈ 14.6 µM)
IC50 (HeLa): 3.98 µg/mL (≈ 14 µM)

Cc1ccc(-c2nc3ccc(Cl)cc3c(=O)n2N)cc1
IC50 (MCF7): 5.39 µg/mL (≈ 18.9 µM)
IC50 (HepG2): 18.4 µg/mL (≈ 64.4 µM)
IC50 (HeLa): 12.1 µg/mL (≈ 42.3 µM)

Cc1ccc(-c2nc3ccc(Cl)cc3c(=S)o2)cc1
IC50 (MCF7): 5.18 µg/mL (≈ 18 µM)
IC50 (HepG2): 11.1 µg/mL (≈ 38.6 µM)
IC50 (HeLa): 13.3 µg/mL (≈ 46.2 µM)

Cc1ccc(-c2nc3ccc(Cl)cc3c(=S)n2N)cc1
IC50 (MCF7): 9.25 µg/mL (≈ 30.6 µM)
IC50 (HepG2): 17 µg/mL (≈ 56.3 µM)
IC50 (HeLa): 14 µg/mL (≈ 46.4 µM)

CSc1nc(-c2ccc(C)cc2)nc2ccc(Cl)cc12
IC50 (MCF7): 8.64 µg/mL (≈ 28.7 µM)
IC50 (HepG2): 13.3 µg/mL (≈ 44.2 µM)
IC50 (HeLa): 14.7 µg/mL (≈ 48.9 µM)

Cc1ccc(-c2nc(NC(=O)c3ccccc3)c3cc(Cl)ccc3n2)cc1
IC50 (MCF7): 16.1 µg/mL (≈ 43.1 µM)
IC50 (HepG2): 17.5 µg/mL (≈ 46.8 µM)
IC50 (HeLa): 16.2 µg/mL (≈ 43.3 µM)

Cc1ccc(-c2nc(NOC(=O)c3ccccc3)c3cc(Cl)ccc3n2)cc1
IC50 (MCF7): 5.59 µg/mL (≈ 14.3 µM)
IC50 (HepG2): 12.1 µg/mL (≈ 31 µM)
IC50 (HeLa): 5.18 µg/mL (≈ 13.3 µM)

Cc1ccc(C(=O)Nc2ccc(Cl)cc2C(=S)NN)cc1
IC50 (MCF7): 3.35 µg/mL (≈ 10.5 µM)
IC50 (HepG2): 5.59 µg/mL (≈ 17.5 µM)
IC50 (HeLa): 4.98 µg/mL (≈ 15.6 µM)

Cc1ccc(-c2nc(SCc3ccccc3)c3cc(Cl)ccc3n2)cc1
IC50 (MCF7): 9.66 µg/mL (≈ 25.6 µM)
IC50 (HepG2): 18.4 µg/mL (≈ 48.8 µM)
IC50 (HeLa): 11.3 µg/mL (≈ 30 µM)

Cc1ccc(-c2nc(SCC#N)c3cc(Cl)ccc3n2)cc1
IC50 (MCF7): 3.35 µg/mL (≈ 10.3 µM)
IC50 (HepG2): 4.37 µg/mL (≈ 13.4 µM)
IC50 (HeLa): 3.76 µg/mL (≈ 11.5 µM)

C=CCSc1nc(-c2ccc(C)cc2)nc2ccc(Cl)cc12
IC50 (MCF7): 8.03 µg/mL (≈ 24.6 µM)
IC50 (HepG2): 23.9 µg/mL (≈ 73.1 µM)
IC50 (HeLa): 9.66 µg/mL (≈ 29.6 µM)

Cc1ccc(-c2nc(Sc3ncccc3[N+](=O)[O-])c3cc(Cl)ccc3n2)cc1
IC50 (MCF7): 3.56 µg/mL (≈ 8.71 µM)
IC50 (HepG2): 5.59 µg/mL (≈ 13.7 µM)
IC50 (HeLa): 5.39 µg/mL (≈ 13.2 µM)

Cc1ccc(-c2nc(SCCO)c3cc(Cl)ccc3n2)cc1
IC50 (MCF7): 3.76 µg/mL (≈ 11.4 µM)
IC50 (HepG2): 9.04 µg/mL (≈ 27.3 µM)
IC50 (HeLa): 9.25 µg/mL (≈ 28 µM)

Cc1ccc(-c2nc(S(=O)(=O)Cc3ccccc3)c3cc(Cl)ccc3n2)cc1
IC50 (MCF7): 3.96 µg/mL (≈ 9.68 µM)
IC50 (HepG2): 7.21 µg/mL (≈ 17.6 µM)
IC50 (HeLa): 7.01 µg/mL (≈ 17.1 µM)

Cc1ccc(-c2nc(SCC(N)=O)c3cc(Cl)ccc3n2)cc1
IC50 (MCF7): 5.59 µg/mL (≈ 16.3 µM)
IC50 (HepG2): 9.45 µg/mL (≈ 27.5 µM)
IC50 (HeLa): 4.98 µg/mL (≈ 14.5 µM)

Cc1ccc(-c2nc(SCC(=O)Nc3ccccc3)c3cc(Cl)ccc3n2)cc1
IC50 (MCF7): 4.78 µg/mL (≈ 11.4 µM)
IC50 (HepG2): 14.3 µg/mL (≈ 34.1 µM)
IC50 (HeLa): 11.7 µg/mL (≈ 27.9 µM)

CCOc1ccc(NC(=O)CSc2nc(-c3ccc(C)cc3)nc3ccc(Cl)cc23)cc1
IC50 (MCF7): 15.8 µg/mL (≈ 34.1 µM)
IC50 (HepG2): 5.99 µg/mL (≈ 12.9 µM)
IC50 (HeLa): 10.1 µg/mL (≈ 21.8 µM)

Cc1ccc(NC(=O)CSc2nc(-c3ccc(C)cc3)nc3ccc(Cl)cc23)cc1
IC50 (MCF7): 5.79 µg/mL (≈ 13.3 µM)
IC50 (HepG2): 18.8 µg/mL (≈ 43.3 µM)
IC50 (HeLa): 12.3 µg/mL (≈ 28.3 µM)

Cc1ccc(-c2nc(SCC(=O)Nc3ccc(F)cc3)c3cc(Cl)ccc3n2)cc1
IC50 (MCF7): 14.7 µg/mL (≈ 33.6 µM)
IC50 (HepG2): 18.4 µg/mL (≈ 42 µM)
IC50 (HeLa): 10.5 µg/mL (≈ 24 µM)

COc1cccc2c1C(=O)c1c(O)c3c(c(O)c1C2=O)C[C@@](O)(C(=O)CO)C[C@@H]3O[C@H]1C[C@H](N)[C@H](O)[C@H](C)O1 [DOXORUBICIN]
IC50 (MCF7): 3.76 µg/mL (≈ 6.92 µM)
IC50 (HepG2): 4.57 µg/mL (≈ 8.41 µM)
IC50 (HeLa): 3.64 µg/mL (≈ 6.7 µM)
